According to patent US9629861B2, “Compositions and methods for treating bacterial infections using ceftaroline” (Forest Laboratories Holdings Limited, priority 2009, dated 2017):

Columns and labels:
[1] = system: H. parainfluenzae; assay: Example 5 CAP study, outcome by baseline pathogen; assay type: in vivo, Haemophilus parainfluenzae
Excerpt: (§1) Per-pathogen clinical cure rate and favorable microbiological outcome rate at TOC in the mMITTE and ME Populations;

[2] = Pharmacokinetics in adolescent patients; assay type: in vivo, human; details: adolescents 12 to 17; 8 mg/kg ceftaroline fosamil (or 600 mg if >75 kg)
Protocol: The pharmacokinetics of ceftaroline were evaluated in adolescent patients (ages 12 to 17) with normal renal function.

[3] = system: CYP1A2; details: human hepatocytes
[4] = system: H. parainfluenzae; assay: Example 4 CAP study, outcome by baseline pathogen; assay type: in vivo
Excerpt: as §1

[5] = system: H. influenzae; assay: Example 4 CAP study, outcome by baseline pathogen; assay type: in vivo, Haemophilus influenzae
Excerpt: as §1

[6] = biological target: T1, CYP2C19 (Homo sapiens, UniProt P33261); assay: CYP inhibition in human liver microsomes; assay type: in vitro ADME
T1 construct: In vitro studies in human liver microsomes; from tissue; host or cells: human liver microsomes

[7] = system: H. influenzae; assay: Example 5 CAP study, outcome by baseline pathogen; assay type: in vivo
Excerpt: as §1

[8] = biological target: T2, CYP2C8 (Homo sapiens, UniProt P10632); assay: CYP inhibition in human liver microsomes; assay type: in vitro ADME
T2 construct: In vitro studies in human liver microsomes; from tissue; host or cells: human liver microsomes

[9] = system: Community-Acquired Bacterial Pneumonia (CABP); assay: Two Phase 3 studies in CABP, integrated; assay type: in vivo, human; details: for Clinical Cure Rate at TOC / Treatment Difference in clinical cure rate at TOC: integrated CABP studies; for Clinical Cure Rate at TOC: after 5 to 7 days of therapy; for Treatment Difference in clinical cure rate at TOC / Weighted treatment difference (95% CI): versus ceftriaxone; for Weighted treatment difference (95% CI): combined CABP studies
Protocol: (§2) In both treatment groups of CABP Study 1, two doses of oral clarithromycin (500 mg q12h), were administered as adjunctive therapy starting on Study Day 1. No adjunctive macrolide therapy was used in CABP Study 2. Patients with new or progressive pulmonary infiltrate(s) on chest radiography and clinical signs and symptoms consistent with CABP with the need for hospitalization and IV therapy were enrolled in the studies. Treatment duration was 5 to 7 days. A switch to oral therapy was not allowed. The Modified Intent-to-Treat Efficacy (MITTE) population included all patients who received any amount of study drug according to their randomized treatment group and were in PORT (Pneumonia Outcomes Research Team) Risk Class III or IV.
The primary efficacy endpoint was the clinical response at the Test of Cure (TOC) visit in the co-primary CE and MITTE populations (Table 4). In a subgroup analysis (CE population), the comparative clinical cure rates between the ceftaroline group and the ceftriaxone group were not affected by age, gender, race, ethnicity, or weight.

[10] = system: CYP3A4/5; assay: CYP induction in human hepatocytes; assay type: in vitro ADME
[11] = Pharmacokinetics in healthy elderly subjects; assay type: in vivo, human; details: healthy elderly (≧65 years); 600 mg IV dose
[12] = biological target: T3, CYP3A4 (Homo sapiens, UniProt P08684); assay: CYP inhibition in human liver microsomes; assay type: in vitro ADME
T3 construct: In vitro studies in human liver microsomes; from tissue; host or cells: human liver microsomes

[13] = system: S. aureus; assay: Example 4 CAP study, outcome by baseline pathogen; assay type: in vivo, Staphylococcus aureus
Excerpt: as §1

[14] = system: Community-Acquired Bacterial Pneumonia (CABP); assay: Phase 3 CABP Study 1 (Example 5, adjunctive clarithromycin); assay type: in vivo, human; details: for Clinical Cure Rate at TOC / Treatment Difference in clinical cure rate at TOC: CABP Study 1; for Difference, clinical cure rate at EOT / Difference, favorable microbiological outcome at TOC: ceftaroline minus ceftriaxone, Example 5; for Treatment Difference in clinical cure rate at TOC: versus ceftriaxone
Protocol: as §2
(§3) The primary efficacy endpoint was the clinical response at the Test of Cure (TOC) visit in the co-primary CE and MITTE populations (Table 4).
The secondary objective of the study was to evaluate the following: the clinical response at end-of-therapy (EOT); the microbiological favorable outcome rate at TOC; the overall (clinical and radiographic) success rate at TOC; the clinical and microbiological response by pathogen at TOC; clinical relapse at late follow-up (LFU); microbiological reinfection/recurrence at LFU; and safety.
The primary efficacy outcome measures were the per-subject clinical cure rate at TOC in the CE and MITTE Populations. Subjects were considered clinically cured at TOC if they had total resolution of all signs and symptoms of the baseline infection, or improvement of the infection such that no further antimicrobial therapy was necessary.
(§4) Non-inferiority was concluded if the lower limit of the 95% CI was higher than −10%.

[15] = biological target: T4, CYP1A1 (Homo sapiens, UniProt P04798); assay: CYP inhibition in human liver microsomes; assay type: in vitro ADME
T4 construct: In vitro studies in human liver microsomes; from tissue; host or cells: human liver microsomes

[16] = system: E. coli; assay: Example 5 CAP study, outcome by baseline pathogen; assay type: in vivo, Escherichia coli
Excerpt: as §1

[17] = system: K. pneumoniae; assay: Example 4 CAP study, outcome by baseline pathogen; assay type: in vivo, Klebsiella pneumoniae
Excerpt: as §1

[18] = system: Community-Acquired Bacterial Pneumonia (CABP); assay: Phase 3 CABP Study 2 (Example 4, no adjunctive macrolide); assay type: in vivo, human; details: for Clinical Cure Rate at TOC / Treatment Difference in clinical cure rate at TOC: CABP Study 2; for Difference, clinical cure rate at EOT / Difference, favorable microbiological outcome at TOC: ceftaroline minus ceftriaxone, Example 4; for Treatment Difference in clinical cure rate at TOC: versus ceftriaxone
Protocol: as §2, §3
The secondary objectives of the study were to evaluate the following: clinical response at end-of-therapy (EOT); the microbiological favorable outcome rate at TOC; the overall (clinical and radiographic) success rate at TOC; the clinical and microbiological response by pathogen at TOC; clinical relapse at late follow-up (LFU); microbiological reinfection/recurrence at LFU; and safety.
The following criteria were used for evaluation: The primary efficacy outcome measures were the per-subject clinical cure rate at test-of-cure (TOC) in the CE and MITTE Populations. Subjects were considered clinically cured at TOC if they had total resolution of all signs and symptoms of the baseline infection, or improvement of the infection such that no further antimicrobial therapy was necessary.
as §4

[19] = system: CYP2B6; assay: CYP induction in human hepatocytes; assay type: in vitro ADME
[20] = Pharmacokinetics of ceftaroline after IV infusion of ceftaroline fosamil in adults with normal renal function; design: species or system human; details: in vivo
Excerpt: The standard deviation is shown in brackets.

T2 sequence (P10632 whole entry): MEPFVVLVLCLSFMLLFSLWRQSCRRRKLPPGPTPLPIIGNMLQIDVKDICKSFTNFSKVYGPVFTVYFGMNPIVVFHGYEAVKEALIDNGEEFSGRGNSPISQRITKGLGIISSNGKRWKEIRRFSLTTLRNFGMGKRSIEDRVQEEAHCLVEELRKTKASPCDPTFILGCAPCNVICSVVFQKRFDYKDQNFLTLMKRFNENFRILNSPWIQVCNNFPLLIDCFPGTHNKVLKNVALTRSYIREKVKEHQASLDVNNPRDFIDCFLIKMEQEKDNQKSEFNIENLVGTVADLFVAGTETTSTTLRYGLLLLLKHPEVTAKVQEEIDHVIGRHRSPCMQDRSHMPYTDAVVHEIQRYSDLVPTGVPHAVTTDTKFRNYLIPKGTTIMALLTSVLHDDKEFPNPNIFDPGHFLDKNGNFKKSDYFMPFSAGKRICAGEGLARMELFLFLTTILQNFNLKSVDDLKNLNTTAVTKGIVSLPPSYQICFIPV
T4 sequence (P04798 whole entry): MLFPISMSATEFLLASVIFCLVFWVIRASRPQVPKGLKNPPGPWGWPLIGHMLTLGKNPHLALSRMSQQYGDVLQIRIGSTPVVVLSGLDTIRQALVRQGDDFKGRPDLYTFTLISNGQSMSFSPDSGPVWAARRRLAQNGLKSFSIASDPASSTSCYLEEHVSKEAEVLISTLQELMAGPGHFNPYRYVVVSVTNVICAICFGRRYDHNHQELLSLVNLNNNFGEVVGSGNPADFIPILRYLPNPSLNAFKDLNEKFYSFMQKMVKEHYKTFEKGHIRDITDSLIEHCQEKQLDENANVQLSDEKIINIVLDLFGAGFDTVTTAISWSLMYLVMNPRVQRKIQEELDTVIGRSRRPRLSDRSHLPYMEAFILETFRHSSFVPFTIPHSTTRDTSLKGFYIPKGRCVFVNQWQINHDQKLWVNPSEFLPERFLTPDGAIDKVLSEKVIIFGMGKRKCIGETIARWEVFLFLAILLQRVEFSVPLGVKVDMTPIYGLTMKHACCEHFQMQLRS
T3 sequence (P08684 whole entry): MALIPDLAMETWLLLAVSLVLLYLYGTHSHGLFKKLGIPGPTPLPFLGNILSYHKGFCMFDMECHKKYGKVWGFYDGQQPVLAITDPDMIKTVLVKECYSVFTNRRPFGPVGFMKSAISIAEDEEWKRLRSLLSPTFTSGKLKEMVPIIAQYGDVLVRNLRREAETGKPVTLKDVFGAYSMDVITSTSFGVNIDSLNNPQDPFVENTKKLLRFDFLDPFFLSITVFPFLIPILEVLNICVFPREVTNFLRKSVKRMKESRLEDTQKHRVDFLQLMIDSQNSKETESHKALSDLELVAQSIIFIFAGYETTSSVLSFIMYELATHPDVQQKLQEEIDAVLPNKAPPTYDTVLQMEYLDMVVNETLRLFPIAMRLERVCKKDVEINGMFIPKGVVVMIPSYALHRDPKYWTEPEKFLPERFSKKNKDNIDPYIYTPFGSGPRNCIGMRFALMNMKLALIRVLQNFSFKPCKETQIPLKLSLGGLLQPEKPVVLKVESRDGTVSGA
T1 sequence (P33261 whole entry): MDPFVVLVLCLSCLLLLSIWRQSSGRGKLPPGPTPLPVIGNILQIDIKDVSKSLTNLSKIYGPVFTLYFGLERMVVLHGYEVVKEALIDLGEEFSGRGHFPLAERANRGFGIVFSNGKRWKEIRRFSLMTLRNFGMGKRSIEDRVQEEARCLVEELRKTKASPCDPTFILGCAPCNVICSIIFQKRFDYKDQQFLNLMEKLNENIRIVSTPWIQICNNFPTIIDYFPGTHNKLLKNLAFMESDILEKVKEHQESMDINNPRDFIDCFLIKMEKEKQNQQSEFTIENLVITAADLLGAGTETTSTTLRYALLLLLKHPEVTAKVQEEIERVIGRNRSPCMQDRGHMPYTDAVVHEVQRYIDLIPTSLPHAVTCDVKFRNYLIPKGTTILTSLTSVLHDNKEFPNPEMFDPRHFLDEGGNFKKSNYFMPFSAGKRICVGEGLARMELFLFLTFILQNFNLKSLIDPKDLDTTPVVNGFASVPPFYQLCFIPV

SMILES: CCO/N=C(\C(=O)N[C@@H]1C(=O)N2C(C(=O)[O-])=C(Sc3nc(-c4cc[n+](C)cc4)cs3)CS[C@H]12)c1nsc(N)n1 [Ceftaroline]
- Favorable Microbiological Outcome at TOC by Baseline Pathogen ([1]; ME): 7/7 (100.0) %
- Clinical Cure Rate at the TOC Visit by Baseline Pathogen ([1]; ME population): 7/7 (100.0) %
- mean AUC less than in adult subjects after 600 mg [2]: ~23%
- mean Cmax less than in adult subjects after 600 mg [2]: about 10%
- induction of CYP1A2 [3]: not inducers
- Favorable Microbiological Outcome at TOC by Baseline Pathogen ([4]; ME): 9/9 (100.0) %
- Clinical Cure Rate at the TOC Visit by Baseline Pathogen ([4]; ME population): 9/9 (100.0) %
- Favorable Microbiological Outcome at TOC by Baseline Pathogen ([5]; ME): 13/15 (86.7) %
- Clinical Cure Rate at the TOC Visit by Baseline Pathogen ([5]; ME population): 13/15 (86.7) %
- inhibition of CYP2C19 [6]: neither ceftaroline fosamil nor ceftaroline inhibits
- Favorable Microbiological Outcome at TOC by Baseline Pathogen ([7]; ME): 2/3 (66.7) %
- Clinical Cure Rate at the TOC Visit by Baseline Pathogen ([7]; ME population): 2/3 (66.7) %
- inhibition of CYP2C8 [8]: neither ceftaroline fosamil nor ceftaroline inhibits
- Clinical Cure Rate at TOC ([9]; CE population): 387/459 (84.3) %
- Clinical Cure Rate at TOC ([9]; MITTE population): 479/580 (82.6) %
- Treatment Difference in clinical cure rate at TOC ([9]; CE): 6.7 (1.6, 11.8) %
- Treatment Difference in clinical cure rate at TOC ([9]; CE, listed as ceftaroline): 6.7%
- Weighted treatment difference (95% CI) ([9]; ME): 9.7 (0.7, 18.8) %
- Weighted treatment difference (95% CI) ([9]; ME, listed as ceftaroline): 9.7%
- Treatment Difference in clinical cure rate at TOC ([9]; MITTE): 6.0 (1.4, 10.7) %
- Weighted treatment difference (95% CI) ([9]; mMITTE): 8.7 (−0.0, 17.4) %
- Weighted treatment difference (95% CI) ([9]; mMITTE, listed as ceftaroline): 8.7%
- induction of CYP3A4/5 [10]: not inducers
- Cmax, elderly versus younger subjects [11]: not significantly different
- inhibition of CYP3A4 [12]: neither ceftaroline fosamil nor ceftaroline inhibits
- Favorable Microbiological Outcome at TOC by Baseline Pathogen ([13]; ME): 11/15 (73.3) %
- Clinical Cure Rate at the TOC Visit by Baseline Pathogen ([13]; ME population): 10/15 (66.7) %
- Clinical Cure Rate at TOC ([14]; CE population): 194 (86.6) %
- Clinical Cure Rate at TOC ([14]; MITTE population): 244 (83.8) %
- Difference, clinical cure rate at EOT ([14]; CE): 7.6%
- Difference, favorable microbiological outcome at TOC ([14]; ME): 11.0%
- Difference, clinical cure rate at EOT ([14]; MITTE): 6.3%
- Difference, favorable microbiological outcome at TOC ([14]; mMITTE): 9.3%
- Treatment Difference in clinical cure rate at TOC ([14]; CE): 8.4%
- Treatment Difference in clinical cure rate at TOC ([14]; MITTE): 6.2%
- inhibition of CYP1A1 [15]: neither ceftaroline fosamil nor ceftaroline inhibits
- Favorable Microbiological Outcome at TOC by Baseline Pathogen ([16]; ME): 8/8 (100.0) %
- Clinical Cure Rate at the TOC Visit by Baseline Pathogen ([16]; ME population): 8/8 (100.0) %
- Favorable Microbiological Outcome at TOC by Baseline Pathogen ([17]; ME): 6/6 (100.0) %
- Clinical Cure Rate at the TOC Visit by Baseline Pathogen ([17]; ME population): 6/6 (100.0) %
- Clinical Cure Rate at TOC ([18]; CE population): 193 (82.1) %
- Clinical Cure Rate at TOC ([18]; MITTE population): 235 (81.3) %
- Difference, clinical cure rate at EOT ([18]; CE): 6.0%
- Difference, favorable microbiological outcome at TOC ([18]; ME): 1.8%
- Difference, clinical cure rate at EOT ([18]; MITTE): 7.4%
- Difference, favorable microbiological outcome at TOC ([18]; mMITTE): 0.4%
- Treatment Difference in clinical cure rate at TOC ([18]; CE): 4.9%
- Treatment Difference in clinical cure rate at TOC ([18]; MITTE): 5.9%
- induction of CYP2B6 [19]: not inducers
- CL/Fm ([20]; human): 9.58 (1.85) L/h
- mean plasma terminal elimination half-life ([20]; human): approximately 2.5 hours
- Cmax and AUC versus dose [20]: increased approximately in proportion to increases in dose
